Source: the NIST ThermoML archive (doi:10.1021/je030106k)
Numbers after ± are expanded uncertainties.

Conditions: Liquid

| vapor or sublimation pressure (273.15 K) [kPa] | vapor or sublimation pressure (283.15 K) [kPa] | vapor or sublimation pressure (293.15 K) [kPa] | vapor or sublimation pressure (303.15 K) [kPa] | Compound |
| --- | --- | --- | --- | --- |
| 475 ± 1.8 | 637.8 ± 2.2 | 836 ± 2.6 | 1078.4 ± 3.2 | CCC [propane] |
| 157.2 ± 1.6 | 221.8 ± 1.8 | 303.4 ± 2.1 | 405.2 ± 2.6 | CC(C)C [2-methylpropane] |
